From patent EP4810052A2, “HCRHR2 SELECTIVE POLYPEPTIDES” (Gubra A/S, priority 2023, dated 2026)
Marks after values point to notes of the source that are not given here. Starred links: 1 amine or outer side, 2 acyl side, 3 side chain; linkers in the order of their positions; H or OH if unused. Residues, ends and D or L forms follow the SMILES beside them. Groups on a side chain read outwards from the residue. *: point of attachment. C20 diacid = O=C(O)CCCCCCCCCCCCCCCCCCC(=O)*; γGlu = O=C(O)[C@H](CCC(=O)[*:2])N[*:1]; AEEA = NCCOCCOCC(=O)O

Legend:
hCRHR1 = biological target: T1, hCRHR1 (Homo sapiens, UniProt P34998); assay: cAMP potency, transiently transfected CHO-K1 cells, hCRHR1; type: cell-based; parameters: DYK (FLAG); host or cells: CHO-K1, transiently transfected; settings: transiently transfected CHO-K1, average n=3; read-out: Transient cell system EC50 (nM) hCR HR1
T1 sequence (P34998 24-415): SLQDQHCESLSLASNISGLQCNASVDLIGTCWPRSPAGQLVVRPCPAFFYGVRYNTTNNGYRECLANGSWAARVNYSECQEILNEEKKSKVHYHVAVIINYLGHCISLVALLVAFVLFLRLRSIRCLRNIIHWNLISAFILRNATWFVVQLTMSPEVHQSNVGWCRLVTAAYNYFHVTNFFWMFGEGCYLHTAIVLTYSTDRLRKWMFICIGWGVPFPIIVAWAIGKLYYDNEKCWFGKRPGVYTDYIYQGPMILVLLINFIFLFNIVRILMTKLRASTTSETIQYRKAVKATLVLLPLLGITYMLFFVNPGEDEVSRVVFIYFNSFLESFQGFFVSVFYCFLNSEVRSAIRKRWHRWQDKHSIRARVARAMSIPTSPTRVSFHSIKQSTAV

[1] = Body mass and body fat content in mouse model of diet-induced obesity (DIO); type: in vivo; settings: DIO mice
Experimental: SEQ ID NO: 3, SEQ ID NO: 6, SEQ ID NO: 238, SEQ ID NO: 16 and SEQ ID NO: 215 were assessed for their ability to reduce body mass and body fat content in a mouse model of diet-induced obesity (DIO).
Male C57BL/6JRj mice were obtained from JanVier (JanVier Labs, France) at 5 weeks of age. The animals were group-housed during obesity induction and then single housed 2 weeks prior to study start. They were housed under a 12/12 h dark-light cycle, light off at 3 PM. Room temperature was controlled to 22°C ± 1°C, with 60 % ± 20% humidity. For 22-23 weeks prior to treatment start and throughout the study, the animals had ad libitum access to high-fat diet (60% kcal fat, D12492, Research Diets) and tap water.
The animals were randomized according to lean mass (EchoMRI) and body weight. Animals were dosed subcutaneously […] for 30-32 days. In study 1, the animals were dosed with vehicle or SEQ ID NO: 3 (10, 30, 60 or 100 nmol/kg). In study 2, the animals were dosed with vehicle or SEQ ID NO: 6 (10 or 30 nmol/kg), SEQ ID NO: 238 (10 or 30 nmol/kg), SEQ ID NO: 16 (10 or 30 nmol/kg), SEQ ID NO: 215 (10 or 30 nmol/kg) or SEQ ID NO: 3 (30 nmol/kg).
Body weight and food intake were recorded daily until day 28 and body composition evaluated on day 26 using EchoMRI. At termination, blood for HbA1c analyses were collected and M. gastrocnemius and M. soleus were weighed.
Statistical significance was evaluated using One-way analysis of variance with Dunnett's multiple comparison test. P < 0.05 was considered statistically significant.

hCRHR2b = biological target: T2, hCRHR2b (Homo sapiens, UniProt Q13324); assay: cAMP potency, transiently transfected CHO-K1 cells, hCRHR2b; type: cell-based; settings: transiently transfected CHO-K1, average n=3; read-out: Transient cell system EC50 (nM) hCRHR 2b
T2 construct: DYK (FLAG); host or cells: CHO-K1, transiently transfected
T2 sequence (Q13324 1-438 isoform Q13324-2): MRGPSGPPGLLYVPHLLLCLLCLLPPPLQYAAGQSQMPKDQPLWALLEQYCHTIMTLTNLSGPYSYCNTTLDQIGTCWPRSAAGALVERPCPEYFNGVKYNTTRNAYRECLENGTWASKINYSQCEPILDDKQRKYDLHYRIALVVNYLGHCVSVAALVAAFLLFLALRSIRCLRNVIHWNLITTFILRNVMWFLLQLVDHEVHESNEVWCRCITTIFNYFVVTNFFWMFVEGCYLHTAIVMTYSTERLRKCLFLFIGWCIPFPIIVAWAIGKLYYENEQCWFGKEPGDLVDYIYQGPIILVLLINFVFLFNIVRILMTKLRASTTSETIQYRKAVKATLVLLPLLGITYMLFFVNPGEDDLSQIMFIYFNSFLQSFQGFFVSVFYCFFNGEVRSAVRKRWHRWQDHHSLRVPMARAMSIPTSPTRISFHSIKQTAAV

mCRHR2 = biological target: T3, mCRHR2 (Mus musculus, UniProt Q60748); assay: cAMP potency, transiently transfected CHO-K1 cells, mCRHR2; type: cell-based; settings: transiently transfected CHO-K1, average n=3; read-out: Transient cell system EC50 (nM) mCRH R2
T3 construct: DYK (FLAG); host or cells: CHO-K1, transiently transfected
Experimental: Selected peptides were tested for potency on different species (mouse, rat, porcine) using transiently transfected CHO-K1 cells using the general procedure.

hCRHR2a = biological target: T4, hCRHR2a (Homo sapiens, UniProt Q13324); assay: cAMP potency, transiently transfected CHO-K1 cells, hCRHR2a; type: cell-based; settings: transiently transfected CHO-K1, average n=3; read-out: Transient cell system EC50 (nM) hCRHR 2a
T4 construct: DYK (FLAG); host or cells: CHO-K1, transiently transfected
T4 sequence (Q13324 1-411): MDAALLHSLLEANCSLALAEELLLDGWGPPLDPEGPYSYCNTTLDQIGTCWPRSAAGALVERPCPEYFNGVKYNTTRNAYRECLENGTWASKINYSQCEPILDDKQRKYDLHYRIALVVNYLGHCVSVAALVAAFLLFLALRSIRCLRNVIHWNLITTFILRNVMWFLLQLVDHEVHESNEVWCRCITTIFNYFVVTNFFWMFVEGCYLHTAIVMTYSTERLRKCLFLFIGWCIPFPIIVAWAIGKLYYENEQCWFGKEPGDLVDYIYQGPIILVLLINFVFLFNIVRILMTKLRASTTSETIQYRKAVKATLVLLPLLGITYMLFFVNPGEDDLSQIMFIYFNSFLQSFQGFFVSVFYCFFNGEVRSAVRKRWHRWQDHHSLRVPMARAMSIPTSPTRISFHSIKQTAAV

[2] = Table 16 study, 10 nmol/kg, ± SEM
[3] = Table 16 study, 30 nmol/kg, ± SEM
[4] = Table 16 study, 60 nmol/kg, ± SEM
[5] = Table 16 study, 100 nmol/kg, ± SEM
[6] = Table 17 study, 30 nmol/kg, ± SEM

T3 sequence (Q60748 1-431 isoform Q60748-2): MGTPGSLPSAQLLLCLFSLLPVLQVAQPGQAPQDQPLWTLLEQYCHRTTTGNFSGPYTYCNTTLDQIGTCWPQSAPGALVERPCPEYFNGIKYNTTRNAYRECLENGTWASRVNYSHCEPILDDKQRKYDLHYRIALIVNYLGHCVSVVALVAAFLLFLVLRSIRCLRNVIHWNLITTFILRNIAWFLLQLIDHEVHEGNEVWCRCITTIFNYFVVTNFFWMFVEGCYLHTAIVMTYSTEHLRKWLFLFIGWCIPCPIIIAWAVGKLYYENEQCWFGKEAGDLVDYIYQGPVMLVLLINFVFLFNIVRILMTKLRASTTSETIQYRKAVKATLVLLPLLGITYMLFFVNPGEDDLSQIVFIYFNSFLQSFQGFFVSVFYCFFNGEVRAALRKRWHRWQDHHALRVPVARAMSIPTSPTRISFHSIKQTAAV

## CC[C@H](C)[C@H](N)C(=O)N[C@H](C(=O)N[C@@H](CC(C)C)C(=O)N[C@@H](CO)C(=O)N[C@@H](CC(C)C)C(=O)N[C@@H](CC(=O)O)C(=O)N[C@H](C(=O)N1CCC[C@H]1C(=O)N[C@H](C(=O)NCC(=O)N[C@@H](CC(C)C)C(=O)N[C@@H](CC(C)C)C(=O)N[C@@H](CCC(N)=O)C(=O)N[C@H](C(=O)N[C@@H](CC(C)C)C(=O)N[C@@H](CC(C)C)C(=O)N[C@@H](CCC(=O)O)C(=O)N[C@@H](CCC(N)=O)C(=O)N[C@@H](C)C(=O)N[C@@H](CCCNC(=N)N)C(=O)N[C@@H](C)C(=O)N[C@@H](CCCNC(=N)N)C(=O)N[C@@H](C)C(=O)N[C@@H](C)C(=O)N[C@@H](CCCNC(=N)N)C(=O)N[C@@H](CCC(=O)O)C(=O)N[C@@H](CCC(N)=O)C(=O)N[C@@H](C)C(=O)N[C@@H](CCCCNC(=O)COCCOCCNC(=O)COCCOCCNC(=O)CC[C@H](NC(=O)CC[C@H](NC(=O)CCCCCCCCCCCCCCCCCCC(=O)O)C(=O)O)C(=O)O)C(=O)N[C@H](C(=O)N[C@@H](CC(N)=O)C(=O)N[C@@H](C)C(=O)N[C@@H](CCC(=O)O)C(=O)N[C@H](C(=O)N[C@@H](CC(C)C)C(=O)N[C@@H](C)C(=O)N[C@@H](CCC(=O)O)C(=O)N[C@H](C(N)=O)C(C)C)[C@@H](C)CC)[C@@H](C)O)[C@@H](C)CC)[C@@H](C)CC)C(C)C)C(C)C [SEQ ID NO: 3] (H-IVLSLDVPIGLLQILLEQARARAAREQAK([AEEA-AEEA-γGlu-γGlu-C20 diacid])TNAEILAEV-NH2)
hCRHR1
  EC50: > 1000 nM
[1]; 28 days, compared to vehicle
  relative body weight: prolonged dose-dependent reduction
[1]; Table 16 study, 10 nmol/kg
  Blood HbA1c: 4.3 ± 0.1%
  M. Gastrocnemius: 0.17 ± 0.005 g
  M. Soleus: 0.011 ± 0.0005 g
[1]; [2]
  BW at termination: 41.9 ± 1.5 g
  Fat mass change from baseline: -7.7 ± 0.7 g
  Lean mass change from baseline: 1.4 ± 0.3 g
  Relative body weight change at termination: 94.3 ± 1.6 %
[1]; Table 16 study, 30 nmol/kg
  Blood HbA1c: 4.1 ± 0.1 %
  M. Gastrocnemius: 0.17 ± 0.003 g
  M. Soleus: 0.012 ± 0.0005 g
[1]; [3]
  BW at termination: 38.2 ± 1.0 g
  Fat mass change from baseline: -10.2 ± 0.6 g
  Lean mass change from baseline: 0.4 ± 0.4 g
  Relative body weight change at termination: 89.0 ± 2.2 %
[1]; Table 16 study, 60 nmol/kg
  Blood HbA1c: 4.15 ± 0.1 %
  M. Gastrocnemius: 0.16 ± 0.004 g
  M. Soleus: 0.012 ± 0.0004 g
[1]; [4]
  BW at termination: 38.5 ± 0.6 g
  Fat mass change from baseline: -10.8 ± 0.6 g
  Lean mass change from baseline: 0.8 ± 0.3 g
  Relative body weight change at termination: 89.9 ± 1.9 %
[1]; Table 16 study, 100 nmol/kg
  Blood HbA1c: 4.1 ± 0.1 %
  M. Gastrocnemius: 0.17 ± 0.003 g
  M. Soleus: 0.011 ± 0.0006 g
[1]; [5]
  BW at termination: 37.3 ± 0.6 g
  Fat mass change from baseline: -11.2 ± 0.6 g
  Lean mass change from baseline: 0.8 ± 0.2 g
  Relative body weight change at termination: 87.7 ± 1.3 %
[1]; Table 17 study, 30 nmol/kg
  Blood HbA1c: 4.2 ± 0.1 %
  M. Gastrocnemius: 0.19 ± 0.003* * g
  M. Soleus: 0.013 ± 0.0006 g
[1]; [6]
  Body weight at termination: 39.3 ± 0.9 g
  Fat mass change from baseline: -9.5 ± 0.6 g
  Lean mass change from baseline: -0.2 ± 0.2 g
  Relative body weight change at termination: 82.4 ± 1.6 %
hCRHR2b
  EC50: 0.0081 nM
mCRHR2
  EC50: 0.0054 nM
hCRHR2a
  EC50: 0.016 nM
